Results on 3 compounds are retold here after patent publication US20220372585A1, “Sensors for Aromatic Compounds and Methods of Making and Using Same” (Washington University, priority 2021, published 2022).

Like-named read-outs stand apart in the source and are kept apart here.

For one series, the target named is T1, WT TrpR (Escherichia coli, UniProt P0A881).
T1 construct: trpR (WT); expressed in transfected cells; host or cells: E. coli Nissle 1917 (EcN), genomic trpR knocked out; plasmid pMBA035 (P17-trpR)
The series is described as follows: WT TrpR system, repression of GFP expression. Type of series: cell-based, E. coli. The text has this: Among the various aspects of the present disclosure is the provision of systems and methods for detecting aromatic compounds. An aspect of the present disclosure provides for a method of protein engineering (e.g., a regulator protein) comprising: mutagenizing specific amino acids in and around a ligand-binding site of a protein, wherein the mutagenizing enables changes in ligand-protein binding specificity while maintaining protein-DNA interaction and thus downstream gene expression control; and/or linking ligand-protein binding to output response. An aspect of the present disclosure provides for an engineered molecular sensor. […] In some embodiments, the engineered regulator protein or the ligand-protein binding site or a sequence encoding the engineered regulator protein or the ligand-protein binding site of the engineered regulator protein is at least about 80% identical to a WT regulator protein or a WT regulator ligand-protein binding site; or a sequence encoding the engineered regulator protein or ligand binding site thereof is at least about 80% identical to a sequence encoding the WT regulator protein or the WT regulator ligand-protein binding site; or functional fragment thereof, the engineered regulator protein having ligand binding activity. In some embodiments, the engineered molecular sensor is optionally genomically integrated into a microorganism, optionally selected from a probiotic or is a purified cell-free sensor. In some embodiments, the engineered regulator protein or enzyme is an engineered TrpR, TyrR, TynA, or FeaR protein. […] In some embodiments, the engineered regulator protein is an engineered TrpR and is a tryptophan (Trp)-, 5-hydroxytryptophan (5-HTP)-, or tryptamine (Trpta)-specific sensor. In some embodiments, the engineered regulator protein or enzyme is an engineered TrpR, TyrR, TynA, or FeaR, and/or wherein the engineered TrpR, TyrR, TynA, or FeaR comprises at least one mutation to a ligand-protein binding site having specific amino acid binding activity. […]

The target in another series is T2, TrpR variant OD (Escherichia coli, UniProt P0A881, A80L/G78C/I79C/K72S/T83R).
T2 construct: trpR (OD); expressed in transfected cells; host or cells: E. coli Nissle 1917 (EcN), genomic trpR knocked out; plasmid pMBA103 (P17-trpR(OD))
Description: TrpR OD variant with synthetic Ptrp promoter, repression of GFP expression. The format is cell-based, E. coli. The text has this:
(§1) Among the various aspects of the present disclosure is the provision of systems and methods for detecting aromatic compounds. An aspect of the present disclosure provides for a method of protein engineering (e.g., a regulator protein) comprising: mutagenizing specific amino acids in and around a ligand-binding site of a protein, wherein the mutagenizing enables changes in ligand-protein binding specificity while maintaining protein-DNA interaction and thus downstream gene expression control; and/or linking ligand-protein binding to output response. An aspect of the present disclosure provides for an engineered molecular sensor. […] In some embodiments, the engineered regulator protein or the ligand-protein binding site or a sequence encoding the engineered regulator protein or the ligand-protein binding site of the engineered regulator protein is at least about 80% identical to a WT regulator protein or a WT regulator ligand-protein binding site; or a sequence encoding the engineered regulator protein or ligand binding site thereof is at least about 80% identical to a sequence encoding the WT regulator protein or the WT regulator ligand-protein binding site; or functional fragment thereof, the engineered regulator protein having ligand binding activity. […]

In the next series the target is T3, TrpR variant O1 (Escherichia coli, UniProt P0A881, A80R/G78N/I79W/K72S/T83K).
T3 construct: trpR (O1); expressed in transfected cells; host or cells: E. coli Nissle 1917 (EcN), genomic trpR knocked out; plasmid pMBA173 (P17-trpR(O1))
The series is described as follows: TrpR O1 variant with synthetic Ptrp promoter, repression of GFP expression. Type of series: cell-based, E. coli.
Excerpt: as §1

For another series, the system named is TynA-FeaR system. Description: microbe, parasite or virus in culture. The note with it: for EC50: Escherichia coli, read-out: KA (half maximal constant). As to the method:
To develop sensors for aromatic amines, the TynA-FeaR system was first characterized in EcN. A sensor plasmid was constructed, which consisted of constitutively expressed TynA and FeaR from E. coli MG1655, and a reporter plasmid, which consisted of GFP under the control of PtynA (see e.g., FIG. 3B). […] Next, the sensitivity and selectivity to different ligands was characterized.
For fluorescence-based quantification, single colonies were transferred to 5 mL LB medium (VWR, Radnor, Pa., USA) in 14 mL round bottom tubes and incubated overnight at 250 rpm and 37° C. Unless otherwise specified, experimental cultures were prepared by diluting overnight cultures 100× into 0.6 mL M9 minimal medium supplemented with 1 mM MgSO4, […]), and 2% w/v glycerol as well as the respective ligands (DA, PEA, Tyra, and Trypta) in 2 mL 96-deep well plates. Cultures were grown for 24 h at 37° C. and 250 rpm. After 5 h and 24 h of incubation, samples were obtained from the cultures for flow cytometry analysis.
Flow cytometry was performed as previously described. Culture samples were collected and diluted to a final OD600 of ˜0.005-0.01 in […] filtered phosphate-buffered saline supplemented with 2 mg/ml kanamycin in 96-well assay microplates (U-bottom, REF-353910 from BD Biosciences, San Jose, Calif., USA). The fluorescence of the samples was measured using a Millipore Guava EasyCyte High Throughput flow cytometer with a 488 nm excitation laser and 512/18 nm emission filter. Cytometry data was gated by forward and side scatter. FlowJo (TreeStar Inc.) was used to obtain the arithmetic mean of the fluorescence distribution. The averages of the arithmetic means were calculated from three biological replicates. The average fluorescence of the non-fluorescent wild-type cell was subtracted from each sample to obtain the final fluorescence (au) values (Equation 2). To obtain the relative fluorescence in FIG. 6A-FIG. 6C, fluorescence values for each variant were normalized to the fluorescence of the wild-type sensor using Equation 3.
The Hill equation (Equations 4 and 5) was used to fit lines to the fluorescence data. The model was fit to the experimentally collected data by minimizing the root mean square error (RMSE; Equation 6).

For series [1], the system named is G415H TynA with wild-type FeaR. Type of series: cell-based, E. coli MG1655. Particulars: G415H TynA + wild-type FeaR, pCX008, pCX015. As to the method:
(§2) Flow cytometry was performed as previously described. […] Cytometry data was gated by forward and side scatter.

A further series relates to G494S TynA and A81S FeaR. The format is cell-based, E. coli MG1655. Particulars: G494S TynA and A81S FeaR; 5 h and 24 h; FIG. 23A-B. As to the method: as §2
Series [2] has as its system G494S TynA with A81T FeaR. Type of series: cell-based, E. coli MG1655. Particulars: G494S*; 5 h; FIG. 17A. As for the experimental part:
as §2

Series [3] has as its system G494S TynA with wild-type FeaR. Type of series: cell-based, E. coli MG1655. The note with it: G494S TynA, wild-type FeaR; 5 h and 24 h; FIG. 18A-B. As for the experimental part: as §2
Series [4] relates to wild-type TynA with A81T FeaR. The format is cell-based, E. coli MG1655. Particulars: wild-type TynA; 1 mM, 24 h; FIG. 21. As for the experimental part: as §2
Series [5] relates to wild-type TynA with L108T FeaR. Type of series: cell-based, E. coli MG1655. Particulars: 24 h, FIG. 28B. As for the experimental part: as §2
The test system of series [6] is wild-type TynA with M83Q FeaR. Type of series: cell-based, E. coli MG1655. The note with it: 24 h, FIG. 28A. As for the experimental part:
as §2

In series [7] the test system is wild-type TynA with W110C FeaR. The format is cell-based, E. coli MG1655. The note with it: 24 h, FIG. 28D. As to the method: as §2
Series [8] deals with wild-type TynA with W110S FeaR. Type of series: cell-based, E. coli MG1655. Particulars: 24 h, FIG. 28C. As for the experimental part:
as §2

Series [9] relates to wild-type TynA and A81L FeaR. The series is described as follows: microbe, parasite or virus in culture. Type of series: cell-based, E. coli MG1655. The note with it: A81L FeaR; 5 h; FIG. 24. As for the experimental part:
as §2

Series [10] relates to wild-type TynA with A81P FeaR. Description: microbe, parasite or virus in culture. The format is cell-based, E. coli MG1655. Particulars: A81P FeaR; 5 h and 24 h; FIG. 25A-B. As to the method:
as §2

In series [11] the test system is wild-type TynA with M83N FeaR. The series is described as follows: PtynA-GFP reporter, wild-type TynA with M83N FeaR (pCX073). The note with it: pCX008, pCX073, FIG. 6E, 24 h. The format is cell-based, E. coli MG1655. As to the method:
as §2

For series [12], the system named is TynA-KP with FeaR-KA I109N. The series is described as follows: GFP fluorescence from PtynA-MG with TynA-KP and FeaR-KA I109N. Type of series: cell-based, Klebsiella aerogenes. The text has this:
FIG. 32. […] Sensor system with PtynA-MG, TynA-KP and FeaR-KA was chosen as the wild type (WT) for further directed evolution. TynA-KP was employed to reduce the possible interference from DA during evolution processes. Values and error bars are the average and standard deviation of biological triplicate, respectively.
FIG. 33A-FIG. 33B. […] The expression of PtynA-MG was regulated by the TynA-KP with FeaR-KA I109N mutant. Points represent experimental data while lines represent the fitted curves. […] Values and error bars are the average and standard deviation of biological triplicate, respectively.

For series [13] the following is noted: Sauerkraut, safe limit; cited from earlier work.
[14] abbreviates: wild-type TynA and FeaR, pCX008, pHJY022, FIG. 3D, 24 h induction.
Where [15] appears, read: wild-type TynA and FeaR, pCX008, pHJY022, FIG. 14, 5 h induction.
The mark [16] stands for this setting: wild-type TynA + L108T FeaR, pCX008, pCX099.
Setting [17] is: wild-type TynA + M83Q FeaR, pCX008, pCX083.
Where [18] appears, read: wild-type TynA + W110C FeaR, pCX008, pCX117.
[19] abbreviates: wild-type TynA + W110S FeaR, pCX008, pCX116.

For the compound `N[C@@H](Cc1c[nH]c2ccc(O)cc12)C(=O)O` [5-HTP, 5-hydroxytryptophan], at WT TrpR, the “fold repression of GFP expression” value is 20 fold. The fold repression result is on record as “about 7 fold” on TrpR variant OD and “about 15 fold” at TrpR variant O1.
For the compound `NCCc1ccc(O)cc1` [Tyramine, tyramine], the figures for the EC50 in the series with TynA-FeaR system (5 h) and with TynA-FeaR system (24 h) were 37 µM and 77 µM, respectively. Besides, the Fmin is 4.4 in the series with TynA-FeaR system (setting [14]); 10.6 with TynA-FeaR system (setting [15]); 0 in series [1] (FIG. 4D, 24 h); 0 in series [1] (FIG. 17B, 5 h); 1.8 in series [5] (setting [16]); 0.4 in series [6] (setting [17]). Further, the figures for the Fmin in series [7] (setting [18]), in series [8] (setting [19]) and in [11] were 0.9, 1.5 and 1.5, respectively. Besides, the “n (Hill coefficient)” value in the series with TynA-FeaR system (setting [14]) is 5; in the series on TynA-FeaR system (setting [15]), 1.6; in [1] (FIG. 4D, 24 h), 0.9; in [1] (FIG. 17B, 5 h), 0.8; in series [5] (setting [16]) it was 1.6; in series [6] (setting [17]) it was 8.4. Besides, the “n (Hill coefficient)” value in series [7] (setting [18]) was determined as 9.7; in series [8] (setting [19]), 9.8; in [11], 12. Moreover, the Fmax is reported as 311 in the series with TynA-FeaR system (setting [15]); 226 in series [1] (FIG. 4D, 24 h); 152 in series [1] (FIG. 17B, 5 h); 78 in series [5] (setting [16]); 55 in series [6] (setting [17]); 148 in [7] (setting [18]). For the same compound, the Fmax in series [8] (setting [19]) stood at 127; in series [11], 158. Also, the response result was “lack of response” in the series with G494S TynA and A81S FeaR; “lack of response” in [2]; “lack of response” in series [3]; “lack of response” in series [5] (L108T FeaR); “lack of response” in series [6] (M83Q FeaR); “lack of response” in series [7] (W110C FeaR). Also, the response result in [8] (W110S FeaR) is given as “lack of response”; in series [9], “lack of response”; in [10] it was “lack of response”; in series [12] (FeaR-KA I109N, 5 h and 24 h, FIG. 33A-B), “lack of response”. The “effect of the A81T FeaR mutation on the response of the sensor” value in series [4] is “insignificant impact”. The induction of fluorescence entry in series [12] (I109N variant, 0.5 mM, 24 h, FIG. 32) is listed as “not”. The Concentration in series [13] was 120 µM.
With `N[C@@H](Cc1c[nH]c2ccccc12)C(=O)O` [Trp, tryptophan], on WT TrpR, the “fold repression of GFP expression” value was 120 fold. In addition, the fold repression result on TrpR variant OD is given as “about 5 fold”; on TrpR variant O1, “about 60 fold”.
